Data as given in US7897340B2, “Use of tumor susceptibilty gene 101 (TSG 101) as a prognostic and diagnostic marker” (The Board of Regents of the University of Texas System, priority 2006, dated 2011).

Legend:
TSG101 = TSG101 protein levels by immunoblotting in T29H cells; format: cell-based, human; conditions: inhibitor pretreatment 24 hrs (FTI-277 10 μM, U0126 20 μM, LY294002 10 μM)
Text: Antigen-antibody complexes were detected by enhanced chemiluminescence (Pierce).

p14ARF = conditions: T29H cells
Method: Protein concentrations of cell lysates were assayed with the Bio-Rad protein assay reagent. Equal amounts of protein were loaded onto 12% SDS polyacrylamide mini-gels (Bio-Rad) or 10% Tricine-SDS gels and transferred to PVDF membranes. PVDF blots and the remaining polyacrylamide gels were stained with Ponceau S and Coomassie Blue, respectively, to ensure equal loading and even transfer of the samples. After being blocked overnight in 5% milk in TBS-Tween, blots were incubated with corresponding primary antibodies for 1.5 hrs, followed by HRP-conjugated secondary antibody (1:4000, Bio-Rad) for 45 min. Antigen-antibody complexes were detected by enhanced chemiluminescence (Pierce).

TSG101 mRNA = TSG101 mRNA levels by semi-quantitative PCR in T29 and T29H cells; format: cell-based, human; conditions: FTI-277 10 μM 24 hours
Method: Total RNA was isolated from cells using Trizol reagent (Invitrogen), and concentration was determined by absorbance at 260 nm. Real-Time PCR analysis was carried out using fluorescent TSG101 primers on an Applied Biosystems Prism 7000 Sequence Detection System. RT-PCR was carried out for TSG101 and HIF-1α using 1 μg of isolated total RNA under the following parameters: 94° C. 1 min, 57° C. 1 min and 72° C. 1.5 min, 35 cycles. Primers used for RT-PCR were TSG10 forward [NT] ID NO: 1), reverse [NT] ID NO: 2), CITED2 forward [NT] ID NO: 3), reverse [NT] ID NO: 4), HIF-1a ? forward [NT] ID NO: 5), reverse [NT] ID NO: 6). […] This up-regulation was further confirmed by immunoblotting analysis of equal amount of independent total protein lysates from pooled T29 and […] cells using an antibody specific to TSG101 (FIG. 1C). To check if the apparent increase in TSG101 protein was due to the transcriptional regulation of the TSG101 gene, the levels of TSG101 mRNA in T29 and […] cells were examined by semiquantitive (FIG. 1D) and real-time PCRs (FIG. 1E). […] Furthermore, the levels of TSG101 mRNA were not affected by FTI-277, a farnesyl transferase inhibitor that blocks the activation of RAS (FIG. 1D).

RAS-GTP = conditions: T29H cells, data not shown

## N#CC(=C(/N)Sc1ccccc1N)/C(C#N)=C(\N)Sc1ccccc1N [U0126]
TSG101
  TSG101 protein levels: significantly decreased
p14ARF
  cellular level of p14ARF: suppressed

## COC(=O)[C@H](CCSC)NC(=O)c1ccc(NC[C@@H](N)CS)cc1-c1ccccc1 [FTI-277]
TSG101 mRNA
  levels of TSG101 mRNA: not affected
TSG101
  TSG101 protein levels: significant decrease
RAS-GTP
  RAS-GTP levels: significantly inhibited
